Columns and labels:
Assay type in all cases: in vivo
[1] = tested on: pigweed (Amaranthus retroflexus); assay: Test A postemergence, pigweed; details: postemergence, 0 to 100 scale, 0 is no effect, 100 is complete control, approximately 10 days
Excerpt: (§1) Seeds of plant species selected from barnyardgrass (Echinochloa crus-galli), kochia (Kochia scoparia), ragweed (common ragweed, Ambrosia elatior), ryegrass, Italian (Italian ryegrass, Lolium multiflorum), foxtail, giant (giant foxtail, Setaria faberii), and pigweed (Amaranthus retroflexus), were planted into a blend of loam soil and sand and treated preemergence with a directed soil spray using test chemicals formulated in a non-phytotoxic solvent mixture which included a surfactant.
(§2) At the same time, plants selected from these weed species and also wheat (Triticum aestivum), corn (Zea mays), blackgrass (Alopecurus myosuroides), and galium (catchweed bedstraw, Galium aparine), were planted in pots containing the same blend of loam soil and sand and treated with postemergence applications of test chemicals formulated in the same manner. Plants ranged in height from 2 to 10 cm and were in the one- to two-leaf stage for the postemergence treatment. Treated plants and untreated controls were maintained in a greenhouse for approximately 10 days, after which time all treated plants were compared to untreated controls and visually evaluated for injury. Plant response ratings, summarized in Table A, are based on a 0 to 100 scale where 0 is no effect and 100 is complete control. A dash (—) response means no test result.

[2] = tested on: ryegrass, Italian (Italian ryegrass, Lolium multiflorum); assay: Test A postemergence, Italian ryegrass; details: postemergence, 0 to 100 scale, 0 is no effect, 100 is complete control, approximately 10 days
Excerpt: as §1, §2

[3] = tested on: ducksalad (Heteranthera limosa); assay: Test B flooded paddy test, ducksalad; details: 250 g ai/ha, Flood; visual rating after 13 to 15 days; scale 0 to 100, 0 is no effect, 100 is complete control
Protocol: (§3) Plant species in the flooded paddy test selected from rice (Oryza sativa), sedge, umbrella (small-flower umbrella sedge, Cyperus difformis), ducksalad (Heteranthera limosa), and barnyardgrass (Echinochloa crus-galli) were grown to the 2-leaf stage for testing. At time of treatment, test pots were flooded to 3 cm above the soil surface, treated by application of test compounds directly to the paddy water, and then maintained at that water depth for the duration of the test. Treated plants and controls were maintained in a greenhouse for 13 to 15 days, after which time all species were compared to controls and visually evaluated. Plant response ratings, summarized in Table B, are based on a scale of 0 to 100 where 0 is no effect and 100 is complete control. A dash (—) response means no test result.

[4] = tested on: foxtail, giant (giant foxtail, Setaria faberii); assay: Test A preemergence, giant foxtail; details: Preemergence, 0 to 100 scale (0 no effect, 100 complete control)
Excerpt: as §1, §2

[5] = tested on: ragweed (common ragweed, Ambrosia elatior); assay: Test A preemergence, ragweed; details: Preemergence, 0 to 100 scale (0 no effect, 100 complete control)
Excerpt: as §1, §2

[6] = tested on: ragweed (common ragweed, Ambrosia elatior); assay: Test A postemergence, ragweed; details: postemergence, 0 to 100 scale, 0 is no effect, 100 is complete control, approximately 10 days
Excerpt: as §1, §2

[7] = tested on: wheat (Triticum aestivum); assay: Test A postemergence, wheat; details: postemergence, 0 to 100 scale, 0 is no effect, 100 is complete control, approximately 10 days
Excerpt: as §1, §2

[8] = tested on: barnyardgrass (Echinochloa crus-galli); assay: Test B flooded paddy test, barnyardgrass; details: 250 g ai/ha, Flood; visual rating after 13 to 15 days; scale 0 to 100, 0 is no effect, 100 is complete control
Protocol: as §3

[9] = tested on: foxtail, giant (giant foxtail, Setaria faberii); assay: Test A postemergence, giant foxtail; details: postemergence, 0 to 100 scale, 0 is no effect, 100 is complete control, approximately 10 days
Excerpt: as §1, §2

[10] = tested on: sedge, umbrella (small-flower umbrella sedge, Cyperus difformis); assay: Test B flooded paddy test, umbrella sedge; details: 250 g ai/ha, Flood; visual rating after 13 to 15 days; scale 0 to 100, 0 is no effect, 100 is complete control
Protocol: as §3

[11] = tested on: kochia (Kochia scoparia); assay: Test A postemergence, kochia; details: postemergence, 0 to 100 scale, 0 is no effect, 100 is complete control, approximately 10 days
Excerpt: as §1, §2

[12] = tested on: kochia (Kochia scoparia); assay: Test A preemergence, kochia; details: Preemergence, 0 to 100 scale (0 no effect, 100 complete control)
Excerpt: as §1, §2

[13] = tested on: pigweed (Amaranthus retroflexus); assay: Test A preemergence, pigweed; details: Preemergence, 0 to 100 scale (0 no effect, 100 complete control)
Excerpt: as §1, §2

[14] = tested on: galium (catchweed bedstraw, Galium aparine); assay: Test A postemergence, galium; details: postemergence, 0 to 100 scale, 0 is no effect, 100 is complete control, approximately 10 days
Excerpt: as §1, §2

[15] = tested on: ryegrass, Italian (Italian ryegrass, Lolium multiflorum); assay: Test A preemergence, Italian ryegrass; details: Preemergence, 0 to 100 scale (0 no effect, 100 complete control)
Excerpt: as §1, §2

[16] = tested on: barnyardgrass (Echinochloa crus-galli); assay: Test A preemergence, barnyardgrass; details: Preemergence, 0 to 100 scale (0 no effect, 100 complete control)
Excerpt: as §1, §2

[17] = tested on: rice (Oryza sativa); assay: Test B flooded paddy test, rice; details: 250 g ai/ha, Flood; visual rating after 13 to 15 days; scale 0 to 100, 0 is no effect, 100 is complete control
Protocol: as §3

[18] = tested on: corn (Zea mays); assay: Test A postemergence, corn; details: postemergence, 0 to 100 scale, 0 is no effect, 100 is complete control, approximately 10 days
Excerpt: as §1, §2

[19] = tested on: blackgrass (Alopecurus myosuroides); assay: Test A postemergence, blackgrass; details: postemergence, 0 to 100 scale, 0 is no effect, 100 is complete control, approximately 10 days
Excerpt: as §1, §2

[20] = tested on: barnyardgrass (Echinochloa crus-galli); assay: Test A postemergence, barnyardgrass; details: postemergence, 0 to 100 scale, 0 is no effect, 100 is complete control, approximately 10 days
Excerpt: as §1, §2

Compound: N#Cc1cccc(Oc2ncc(Cl)cn2)c1OCc1ccc(Cl)cn1 [Compound 6]
- Plant response rating, Pigweed ([1]; 31 g ai/ha): 20
- Plant response rating, Pigweed ([1]; 125 g ai/ha): 80
- Plant response rating, Ryegrass, Italian ([2]; 31 g ai/ha): 0
- Plant response rating, Ryegrass, Italian ([2]; 125 g ai/ha): 0
- Plant response rating, Ducksalad [3]: 0
- Plant response rating, Foxtail, Giant ([4]; 31 g ai/ha): 0
- Plant response rating, Foxtail, Giant ([4]; 125 g ai/ha): 20
- Plant response rating, Ragweed ([5]; 31 g ai/ha): 0
- Plant response rating, Ragweed ([5]; 125 g ai/ha): 0
- Plant response rating, Ragweed ([6]; 31 g ai/ha): 0
- Plant response rating, Ragweed ([6]; 125 g ai/ha): 0
- Plant response rating, Wheat ([7]; 31 g ai/ha): 0
- Plant response rating, Wheat ([7]; 125 g ai/ha): 0
- Plant response rating, Barnyardgrass [8]: 0
- Plant response rating, Foxtail, Giant ([9]; 31 g ai/ha): 0
- Plant response rating, Foxtail, Giant ([9]; 125 g ai/ha): 10
- Plant response rating, Sedge, Umbrella [10]: 0
- Plant response rating, Kochia ([11]; 31 g ai/ha): 10
- Plant response rating, Kochia ([11]; 125 g ai/ha): 60
- Plant response rating, Kochia ([12]; 31 g ai/ha): 0
- Plant response rating, Kochia ([12]; 125 g ai/ha): 0
- Plant response rating, Pigweed ([13]; 31 g ai/ha): 10
- Plant response rating, Pigweed ([13]; 125 g ai/ha): 90
- Plant response rating, Galium ([14]; 31 g ai/ha): 30
- Plant response rating, Galium ([14]; 125 g ai/ha): 40
- Plant response rating, Ryegrass, Italian ([15]; 31 g ai/ha): 0
- Plant response rating, Ryegrass, Italian ([15]; 125 g ai/ha): 0
- Plant response rating, Barnyardgrass ([16]; 31 g ai/ha): 0
- Plant response rating, Barnyardgrass ([16]; 125 g ai/ha): 0
- Plant response rating, Rice [17]: 0
- Plant response rating, Corn ([18]; 31 g ai/ha): 10
- Plant response rating, Corn ([18]; 125 g ai/ha): 20
- Plant response rating, Blackgrass ([19]; 31 g ai/ha): 0
- Plant response rating, Blackgrass ([19]; 125 g ai/ha): 10
- Plant response rating, Barnyardgrass ([20]; 31 g ai/ha): 0
- Plant response rating, Barnyardgrass ([20]; 125 g ai/ha): 10

Compound: Fc1cccc(Oc2ncc(Cl)cn2)c1OC/C=C/Cl [Compound 9]
- Plant response rating, Pigweed ([1]; 125 g ai/ha): 60
- Plant response rating, Pigweed ([1]; 500 g ai/ha): 100
- Plant response rating, Ryegrass, Italian ([2]; 125 g ai/ha): 0
- Plant response rating, Ryegrass, Italian ([2]; 500 g ai/ha): 10
- Plant response rating, Ducksalad [3]: 80
- Plant response rating, Foxtail, Giant ([4]; 125 g ai/ha): 100
- Plant response rating, Foxtail, Giant ([4]; 500 g ai/ha): 100
- Plant response rating, Ragweed ([5]; 125 g ai/ha): 0
- Plant response rating, Ragweed ([5]; 500 g ai/ha): 0
- Plant response rating, Ragweed ([6]; 125 g ai/ha): 0
- Plant response rating, Ragweed ([6]; 500 g ai/ha): 0
- Plant response rating, Wheat ([7]; 125 g ai/ha): 0
- Plant response rating, Wheat ([7]; 500 g ai/ha): 10
- Plant response rating, Barnyardgrass [8]: 0
- Plant response rating, Foxtail, Giant ([9]; 125 g ai/ha): 20
- Plant response rating, Foxtail, Giant ([9]; 500 g ai/ha): 80
- Plant response rating, Sedge, Umbrella [10]: 80
- Plant response rating, Kochia ([11]; 125 g ai/ha): 70
- Plant response rating, Kochia ([11]; 500 g ai/ha): 100
- Plant response rating, Kochia ([12]; 125 g ai/ha): 40
- Plant response rating, Kochia ([12]; 500 g ai/ha): 100
- Plant response rating, Pigweed ([13]; 125 g ai/ha): 80
- Plant response rating, Pigweed ([13]; 500 g ai/ha): 100
- Plant response rating, Galium ([14]; 125 g ai/ha): 60
- Plant response rating, Galium ([14]; 500 g ai/ha): 90
- Plant response rating, Ryegrass, Italian ([15]; 125 g ai/ha): 0
- Plant response rating, Ryegrass, Italian ([15]; 500 g ai/ha): 20
- Plant response rating, Barnyardgrass ([16]; 125 g ai/ha): 40
- Plant response rating, Barnyardgrass ([16]; 500 g ai/ha): 100
- Plant response rating, Rice [17]: 0
- Plant response rating, Corn ([18]; 125 g ai/ha): 10
- Plant response rating, Corn ([18]; 500 g ai/ha): 30
- Plant response rating, Blackgrass ([19]; 125 g ai/ha): 10
- Plant response rating, Blackgrass ([19]; 500 g ai/ha): 70
- Plant response rating, Barnyardgrass ([20]; 125 g ai/ha): 20
- Plant response rating, Barnyardgrass ([20]; 500 g ai/ha): 80

Compound: Cc1cccc(Oc2ncc(Cl)cn2)c1OC/C=C/Cl [Compound 59]
- Plant response rating, Pigweed ([1]; 31 g ai/ha): 40
- Plant response rating, Pigweed ([1]; 125 g ai/ha): 70
- Plant response rating, Ryegrass, Italian ([2]; 31 g ai/ha): 0
- Plant response rating, Ryegrass, Italian ([2]; 125 g ai/ha): 0
- Plant response rating, Ducksalad [3]: 100
- Plant response rating, Foxtail, Giant ([4]; 31 g ai/ha): 10
- Plant response rating, Foxtail, Giant ([4]; 125 g ai/ha): 50
- Plant response rating, Ragweed ([5]; 31 g ai/ha): 0
- Plant response rating, Ragweed ([5]; 125 g ai/ha): 0
- Plant response rating, Ragweed ([6]; 31 g ai/ha): 0
- Plant response rating, Ragweed ([6]; 125 g ai/ha): 0
- Plant response rating, Wheat ([7]; 31 g ai/ha): 0
- Plant response rating, Wheat ([7]; 125 g ai/ha): 0
- Plant response rating, Barnyardgrass [8]: 20
- Plant response rating, Foxtail, Giant ([9]; 31 g ai/ha): 20
- Plant response rating, Foxtail, Giant ([9]; 125 g ai/ha): 50
- Plant response rating, Sedge, Umbrella [10]: 90
- Plant response rating, Kochia ([12]; 31 g ai/ha): 60
- Plant response rating, Kochia ([12]; 125 g ai/ha): 100
- Plant response rating, Pigweed ([13]; 31 g ai/ha): 20
- Plant response rating, Pigweed ([13]; 125 g ai/ha): 100
- Plant response rating, Galium ([14]; 31 g ai/ha): 90
- Plant response rating, Galium ([14]; 125 g ai/ha): 30
- Plant response rating, Ryegrass, Italian ([15]; 31 g ai/ha): 0
- Plant response rating, Ryegrass, Italian ([15]; 125 g ai/ha): 0
- Plant response rating, Barnyardgrass ([16]; 31 g ai/ha): 30
- Plant response rating, Barnyardgrass ([16]; 125 g ai/ha): 100
- Plant response rating, Rice [17]: 0
- Plant response rating, Corn ([18]; 31 g ai/ha): 0
- Plant response rating, Corn ([18]; 125 g ai/ha): 10
- Plant response rating, Blackgrass ([19]; 31 g ai/ha): 0
- Plant response rating, Blackgrass ([19]; 125 g ai/ha): 50
- Plant response rating, Barnyardgrass ([20]; 31 g ai/ha): 40
- Plant response rating, Barnyardgrass ([20]; 125 g ai/ha): 100

From patent US10485235B2, “Aryloxypyrimidinyl ethers as herbicides” (FMC Corporation, priority 2015, dated 2019)
